Laboratory results reported in PMC7363588, “Mapping of the FGF14:Nav1.6 complex interface reveals FLPK as a functionally active peptide modulating excitability” (Physiological Reports, 2020).
Entries after “also recorded” stand apart in the source; their conditions may differ. Peptide text beside a SMILES is read from it.

Tested on: persistent sodium current (I NaP) from MSNs in the nucleus accumbens
Assay: Brain slice voltage-clamp: persistent Na^+ current (I NaP) in MSNs
Type: cell-based, male C57BL6/J mice
Protocol: Brain slices from male C57BL6/J mice aged 28–45 days were prepared to contain the nucleus accumbens (NAc). Mice were anesthetized with Isoflurane (Baxter, Deerfield, IL) and brains extracted following decapitation. Brains were sliced with a vibratome (Leica Microsystems, Wetzlar, Germany) to achieve 300 μm coronal slices. Brains sliced in extracellular salts; consisting of the following (mM): Tris‐HCl 72, Tris‐Base18, NaH2PO4 1.2, KCl 2.5, HEPES 20, sucrose 20, NaHCO3 25, glucose 25, MgSO4 10, Na‐pyruvate 3, Na‐ascorbate 5 and CaCl2 0.5 (Sigma‐Aldrich, St. Louis, MO); 300–310 mOsm, pH 7.4 and was continuously oxygenated (mixture of 95%/5% O2/CO2). […] Evoked action potentials with a range of current injections from 10 pA to 220 pA with 800 ms every 10 pA were measured and number of action potentials, instantaneous frequency, and other electrical parameters were determined. […] The voltage‐dependence of I NaP was determined using standard protocols (Yue, Remy, Su, Beck, & Yaari, 2005). […] Membrane capacitance was calculated using the equation: capacitance = membrane time constant/input resistance (Meitzen, Weaver, Brenowitz, & Perkel, 2009). The membrane input resistance was measured by a series of 600 ms hyperpolarizing current steps from −50 to 0 pA, step 10 pA with 1 s interval. […]

CC(=O)N[C@@H](Cc1ccccc1)C(=O)N[C@@H](CC(C)C)C(=O)N1CCC[C@H]1C(=O)N[C@@H](CCCCN)C(N)=O [FLPK] (Ac-FLPK-NH2)
effect on I NaP (50 µM FLPK vs 0.1% DMSO): increase in persistent sodium current; also recorded: potentiated persistent Na^+ currents | persistent sodium current (I NaP) (50 µM FLPK, slow voltage ramps (50 mV/s), TTX-subtracted, control 111.4 ± 15.7 pA, p < .03, n = 14): −158.2 ± 14.2 pA
